From patent US20260217701A1, “SELECTIVE BET INHIBITORS AND USES THEREOF” (Tay Therapeutics Limited, priority 2022, published 2026)
Values joined by “and” are separate entries in the source; they are usually repeats but may differ in a detail not shown here. Equal entries are not always repeated. Where two headings read alike, the source gives them in different places.

Assay: Dog PK study #2 (Compound A IV, HPBCD formulation)
Assay type: in vivo, beagle dogs
Procedure: For Dog PK study #2, a solution of Compound A was prepared in HPBCD (20% solution w/v)/DMSO (99/1) with a concentration of 0.5 mg/mL (Table 2B). The Compound A solution was administered to animals intravenously (IV), and animals were monitored over a 24 h period (Table 3C). Body weight was recorded prior to dosing, and detailed clinical observations were made prior to dosing and throughout the study, as needed.
Blood samples (~0.3 mL) were collected according to a schedule (shown below) by venipuncture of peripheral veins except for the dosing vein, and EDTA-K2 was used as anticoagulant. Within 30 minutes of collection, the samples were centrifuged at approximately 2000 times g-force for 10 minutes at 4° C. to obtain blood plasma. The plasma samples were immediately divided into two aliquots (~75 μL each), transferred to a cryogenic vial, and stored in a freezer at −75+15° C. prior to analysis.
Blood samples were collected at 0.083, 0.25, 0.5, 1, 2, 4, 8, and 24 h following the initial dosing (0 h).
The concentration of Compound A in the blood plasma was determined through liquid chromatography-mass spectrometry (LC-MS). The experiments were conducted on a Shimadzu HPLC(DGU-20A5R; LC-30AD; SIL-30AC; Rack Changer II; CTO-30A; and CBM-20A) and AB API 5500 LC/MS/MS instrument with an Agilent Poroshell EC-C18 4 μm (50×2.1 mm) column. A gradient of 95% water (0.1% formic acid)/95% acetonitrile (0.1% formic acid) was used as the mobile phase. The sample injection volume was 4 μL, and the flow rate was 0.6 mL/min. The gathered data were used for pharmacokinetic calculations using T1/2, CO, AUClast, AUCinf, MRTinf, Cl, Vss, and Number of Points for Regression as parameters.
The desired serial concentrations of working solutions were achieved by diluting stock solution of analyte with 50% acetonitrile in water solution. 5 μL of working solutions (5, 10, 20, 50, 100, 500, 1000, 5000, 10000 ng/ml) were added to 50 µL of the blank Beagle Dogs plasma to achieve calibration standards of 0.5~1000 ng/ml (0.5, 1, 2, 5, 10, 50, 100, 500, 1000 ng/ml) in a total volume of 55 μL. Five quality control samples at 1 ng/ml, 2 ng/mL, 5 ng/ml, 50 ng/mL and 800 ng/mL for plasma were prepared independently of those used for the calibration curves. These QC samples were prepared on the day of analysis in the same way as calibration standards.
55 μL standards, 55 μL QC samples and 55 μL unknown samples (50 μL plasma with 5 μL blank solution) were added to 200 μL of acetonitrile containing IS mixture (verapamil) for precipitating protein respectively. Then the samples were vortexed for 30 s. After centrifugation at 4° C., 3900 rpm for 15 min, the supernatant was diluted 3 times with water. 4 μL of diluted supernatant was injected into the LC/MS/MS system for quantitative analysis.

[1] = IV 1 mg/kg, HPBCD formulation, individual animals, 1 mg/kg
[2] = IV 1 mg/kg, HPBCD formulation, mean
[3] = beagle, dog, plasma, iv, 1 mg/kg, IV 1 mg/kg, HPBCD formulation, individual animals, read-out: Plasma concentration
[4] = beagle, dog, plasma, iv, 1 mg/kg, IV 1 mg/kg, HPBCD formulation, mean, read-out: Average plasma concentration
[5] = beagle, dog, plasma, iv, 1 mg/kg, IV 1 mg/kg, HPBCD formulation, mean

For `Cn1cc(-c2ccccc2)c(-c2cn(C)c(=O)c3[nH]c(-c4cnn(C(F)(F)F)c4)cc23)cc1=O` [Compound A, 6-methyl-4-(1-methyl-2-oxo-5-phenyl-1,2-dihydropyridin-4-yl)-2-(1-(trifluoromethyl)-1H-pyrazol-4-yl)-1,6-dihydro-7H-pyrrolo[2,3-c]pyridin-7-one], the “clinical observations, HPBCD vs propylene glycol formulation” value (IV) was “fewer clinical observations”, the AUClast [1] was 4409 ng·h/mL and 1577 ng·h/mL and 1732 ng·h/mL and the AUClast/D [1] was 4409 (ng · h/mL)/(mg/kg) and 1577 (ng · h/mL)/(mg/kg) and 1732 (ng · h/mL)/(mg/kg). The AUClnf [1] was 4854 ng·h/mL and 1674 ng·h/mL and 2083 ng·h/mL, the “AUC—%Extrap—obs” value [1] was 9.17% and 5.83% and 16.8% and the C0 [1] was 476 ng/mL and 410 ng/mL. For the same compound, the CI_obs [1] was 3.43 mL/min/kg and 9.95 mL/min/kg and 8.00 mL/min/kg, the “MRTlnf—obs” value [1] was 9.30 h and 6.26 h and 11.8 h and the T1/2 [1] was 6.45 h and 10.1 h. The “Vss—obs” value [1] was 1.91 L/kg and 3.74 L/kg and 5.67 L/kg, the AUClast/D [2] was 2573 (ng · h/mL)/(mg/kg) and the “AUC—%Extrap—obs” value [2] was 10.6%. For the same compound, the CI_obs [2] was 7.13 mL/min/kg, the “MRTlnf—obs” value [2] was 9.1 h and the concentration at 0.083 h [3] was 479 ng/mL. It also gave a concentration at 0.083 h [4] of 446 ng/mL, a concentration at 0.25 h [3] of 540 ng/mL and a concentration at 0.25 h [4] of 450 ng/mL. The concentration at 0.5 h [3] was 405 ng/mL, the concentration at 0.5 h [4] was 328 ng/mL and the concentration at 1 h [3] was 331 ng/mL. The concentration at 1 h [4] was 269 ng/mL, the concentration at 2 h [3] was 323 ng/mL and the concentration at 2 h [4] was 232 ng/mL. The concentration at 4 h (beagle, dog, plasma, iv, 1 mg/kg, IV 1 mg/kg, HPBCD formulation, 4 h, mean) was 176 ng/mL, the concentration at 8 h (beagle, dog, plasma, iv, 1 mg/kg, IV 1 mg/kg, HPBCD formulation, 8 h, mean) was 100 ng/mL and the concentration at 24 h (beagle, dog, plasma, iv, 1 mg/kg, IV 1 mg/kg, HPBCD formulation, 24 h, mean) was 26 ng/mL. For the same compound, the half-life (beagle, dog, plasma, iv, 1 mg/kg, IV 1 mg/kg, HPBCD formulation, individual animals) was 7.11 h, the C0 (beagle, dog, plasma, iv, 1 mg/kg, IV 1 mg/kg, HPBCD formulation, individual animals, read-out: C0) was 479 ng/mL and the AUC [5] was 2870 ng·h/mL. For the same compound, the AUC(0-t) [5] was 2570 ng·h/mL, the half-life [5] was 7.9 h and the C0 (beagle, dog, plasma, iv, 1 mg/kg, IV 1 mg/kg, HPBCD formulation, mean, read-out: C0) was 455 ng/mL. For the same compound, the Vd (beagle, dog, plasma, iv, 1 mg/kg, IV 1 mg/kg, HPBCD formulation, mean, read-out: Vss—obs) was 3.77 L/kg.
